Assay results from BindingDB's records for doi:10.7270/Q2NV9GP9 (Burnham Center For Chemical Genomics, 2010).
Counter-ions that a name gives are not always drawn.

Biological target: T1, Apelin receptor (Homo sapiens, UniProt P35414)
T1 sequence (P35414 whole entry): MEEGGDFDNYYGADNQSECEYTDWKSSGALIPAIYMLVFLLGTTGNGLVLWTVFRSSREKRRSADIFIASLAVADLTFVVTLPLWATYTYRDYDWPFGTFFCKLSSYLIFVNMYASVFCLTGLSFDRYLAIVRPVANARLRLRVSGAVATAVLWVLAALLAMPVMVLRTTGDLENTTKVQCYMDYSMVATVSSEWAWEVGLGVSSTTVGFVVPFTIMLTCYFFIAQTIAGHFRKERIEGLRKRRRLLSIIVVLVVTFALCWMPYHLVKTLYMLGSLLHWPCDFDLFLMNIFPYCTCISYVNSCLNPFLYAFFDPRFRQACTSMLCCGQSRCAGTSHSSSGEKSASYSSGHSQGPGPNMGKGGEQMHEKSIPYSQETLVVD
Assay: APJ agonists inducing beta-arrestin recruitment, dose response, cell-based, luminescence, uHTS hits (AID 488748)

EC50, > 100 µM:
COc1cccc2sc3ccc(NCCC4CCCN4C)cc3c(=O)c12 (stereo not given) [MLS001249993]
NC(=NOS(=O)(=O)c1ccc2ccccc2c1)c1ccncc1 [N'-[(2-naphthylsulfonyl)oxy]-4-pyridinecarboximidamide]
COc1cc2c(cc1NC(=O)c1cc(-c3cccnc3)nc3ccc(C)cc13)oc1ccccc12 [N-(2-methoxydibenzofuran-3-yl)-6-methyl-2-pyridin-3-ylquinoline-4-carboxamide]
CCN(CC)CCNC(=O)c1cc(-c2cccnc2)nc2ccc(S(=O)(=O)N3CCC(C)CC3)cc12 [N-[2-(diethylamino)ethyl]-6-[(4-methyl-1-piperidinyl)sulfonyl]-2-(3-pyridinyl)-4-quinolinecarboxamide]
CC(C)C(=O)N1CCN(c2ccc(NC(=O)COc3ccccc3[N+](=O)[O-])cc2)CC1 [N-[4-(4-isobutyryl-1-piperazinyl)phenyl]-2-(2-nitrophenoxy)acetamide]
CSc1cccc(NC(=S)NC(=O)CCc2ccccc2)c1 [N-[(3-methylsulfanylphenyl)carbamothioyl]-3-phenyl-propanamide]
CCCCNc1c(-c2cccc(-c3ccc(OC)cc3)c2)nc2ccc(C)cn12 [N-butyl-2-[3-(4-methoxyphenyl)phenyl]-6-methylimidazo[1,2-a]pyridin-3-amine;2,2,2-trifluoroacetic acid]
CCOc1ccc2nc(O)c(CN(CCO)C(c3nnnn3C3CCCCC3)C(C)C)cc2c1 (stereo not given) [SMR000004541]
CCOc1cc2[nH]c(=S)n(CC3CCCN3CC)c(=O)c2cc1OCC (stereo not given) [SMR000030998]
CCSc1nc(O)c(CC)c(=O)n1C(C)CC (stereo not given) [SMR000103074]
COc1ccc2[nH]c(=O)c(CN(Cc3ccco3)C(c3nnnn3Cc3ccccc3)C(C)C)cc2c1 (stereo not given) [SMR000123514]
CC1=NOC(=O)/C1=C\c1ccc(-c2cc(Cl)ccc2Cl)o1 [SMR000141784]
O=c1oc2cc(OCc3ccc([N+](=O)[O-])cc3)ccc2c2c1CCCC2 [SMR000176214]
COc1cc2c(cc1NC(=O)c1cccc([N+](=O)[O-])c1)oc1ccccc12 [SMR000187222]
Cc1ccc(C=NNC(=O)CSc2nnc(-c3ccccc3)n2-c2ccc(Cl)cc2)o1 [SMR000217660]
Cc1ccc(C=NNC(=O)CSc2nnc(-c3ccc(Cl)cc3)n2-c2ccccc2)o1 [SMR000218122]
Cc1ccc2nc(NNC(=O)c3ccc(S(=O)(=O)N4CCc5ccccc5C4)cc3)sc2c1 [SMR000235768]
CC1(OC(=O)C2CCCC2)C(=O)C=C2C=C(c3ccsc3)N(C3CCCC3)C=C2C1=O (stereo not given) [SMR000452667]
O=C(Cn1ncc2c([nH]c3ccccc32)c1=O)Nc1ccc(CN2CCCCC2)cc1 [SMR000629297]
CC1CCN(S(=O)(=O)c2ccc3nc(N4CCN(c5ccccc5)CC4)ccc3c2)CC1 [SMR000630335]
COc1cc(NC(=S)NC(=O)CCc2ccccc2)cc(OC)c1 [SMR000668635]
CN(C)CCCN(C(=O)c1ccc(S(=O)(=O)N2CCc3ccccc3C2)cc1)c1nc2ccc(F)cc2s1 [SMR000807789]
Cc1cccc2sc(N(CCCN(C)C)C(=O)c3ccc(S(=O)(=O)N4CCc5ccccc5C4)cc3)nc12 [SMR000807812]
CN(C)CCCN(C(=O)c1ccc(S(=O)(=O)N2CCc3ccccc3C2)cc1)c1nc2c(F)cccc2s1 [SMR000807825]
CN(C)CCCN(C(=O)c1cc2cc([N+](=O)[O-])ccc2s1)c1nc2cc3c(cc2s1)OCCO3 [SMR000807865]
COC(=O)CCCC1=CC2=CC(=O)C(C)(OC(=O)c3cccs3)C(=O)C2=CN1C1CCCCC1 (stereo not given) [[2-cyclohexyl-3-(4-methoxy-4-oxobutyl)-7-methyl-6,8-dioxoisoquinolin-7-yl] thiophene-2-carboxylate]
CCCCC1=CC2=CC(=O)C(C)(OC(=O)C3CCCC3)C(=O)C2=CO1 (stereo not given) [cyclopentanecarboxylic acid (3-butyl-7-methyl-6,8-dioxo-2-benzopyran-7-yl) ester]
CCOC(=O)N1CCN(S(=O)(=O)c2ccc(C(=O)N(CCCN(C)C)c3nc4ccc(Cl)cc4s3)cc2)CC1 [ethyl 4-[4-[(6-chloranyl-1,3-benzothiazol-2-yl)-[3-(dimethylamino)propyl]carbamoyl]phenyl]sulfonylpiperazine-1-carboxylate;hydrochloride]
CCOC(=O)C1C(Cn2cnc3ccccc32)=NC(=O)NC1c1cc(C)ccc1C (stereo not given) [ethyl 6-(benzimidazol-1-ylmethyl)-4-(2,5-dimethylphenyl)-2-oxidanylidene-3,4-dihydro-1H-pyrimidine-5-carboxylate]
COC(=O)C1C(Cn2cnc3ccccc32)=NC(=O)NC1c1cc(C)ccc1C (stereo not given) [methyl 6-(benzimidazol-1-ylmethyl)-4-(2,5-dimethylphenyl)-2-oxo-3,4-dihydro-1H-pyrimidine-5-carboxylate]
